“Also recorded” adds a separate entry of the source.

Test [1] concerns semi-isolated Z. atratus heart. Nature of the test: semi-isolated heart bioassay (video microscopy, continuously perfused heart). The settings on record: synthetic peptide 1×10^-9 M in saline, semi-isolated adult Z. atratus heart, n = 3–8 (Figure 8). Also on record: species or system Zophobas atratus. Here is the method: All HPLC fractions were re-suspended in 100 µl of T. molitor saline (274 mM NaCl, 19 mM KCl, 9 mM CaCl2, 5 mM glucose, and 5 mM HEPES, pH 7.0), to a concentration of 1 brain or CC/CA equivalent, and assayed in vitro using a semi-isolated Z. atratus heart prepared according to Gäde and Rosinski ([1990]). In the bioassay, the video microscopy technique and the computer-based method of data acquisition and analysis were used to study the action of the fractions on continuously perfused heart preparations as described previously ([Marciniak et al. 2008]). The activities of tested fractions are presented as percentage changes in the control frequency of the heart contraction.
Synthetic peptides were dissolved in saline to yield a stock solution of 1 mM and were stored at -30 °C. Working dilutions (1×10^-9 M) were made from the stock solution in saline.

In the next test the test system is heart of T. molitor. The settings on record: cited from earlier work. The text has this: The most prominent ion signal (1257.8) in both the brain and CC/CA corresponds to leucomyosuppressin, a member of the FMRFamide family first characterized from the cockroach L. maderae ([Holman et al. 1986a]). […] These peptides are pleiotropic as their effects on insects include the modulation of muscle contractile activity ([Predel and Nachman 2001]; [Rosinski 1995]).

The subject of test [2] is semi-isolated Z. atratus heart. The settings on record: ref Skonieczna and Rosinski 2004; cited from earlier work. The source says: The most prominent ion signal (1257.8) in both the brain and CC/CA corresponds to leucomyosuppressin, a member of the FMRFamide family first characterized from the cockroach L. maderae ([Holman et al. 1986a]).
The test system of another test is heart muscles in beetles. The settings on record: synthetic peptide; ref Rosinski 1995; cited from earlier work. On the procedure: All HPLC fractions were re-suspended in 100 µl of T. molitor saline (274 mM NaCl, 19 mM KCl, 9 mM CaCl2, 5 mM glucose, and 5 mM HEPES, pH 7.0), to a concentration of 1 brain or CC/CA equivalent, and assayed in vitro using a semi-isolated Z. atratus heart prepared according to Gäde and Rosinski ([1990]). In the bioassay, the video microscopy technique and the computer-based method of data acquisition and analysis were used to study the action of the fractions on continuously perfused heart preparations as described previously ([Marciniak et al. 2008]). The activities of tested fractions are pre ... || An AKH (Tenmo-AKH: pELNFSPNWa) had previously been identified from the CC of both T. molitor and Z. atratus (formerly Z. rugipes) ([Gäde and Rosinski 1990]), whereas two AKHs (pELNFSTDWa and pELNFTPNWa) are present in T. castaneum ([Audsley and Weaver, 2008]; [Gäde et al 2008]). From mass analysis of Z. atratus CC, only AKH was identified by the precursor ions 1009.7 and 1025.7, which represent the Na^+ and K^+ adducts of Temno-AKH, and its sequence was confirmed by MALDI-PSD. The protonated form of AKH is not usually detected using MALDI-TOF MS ([Audsley and Weaver, 2003]). Fraction 31 from t ...

Regarding SPPFAPRLa [Pyrokinin 2], the figures for the “chronotropic effect on heart contractile activity (in words)” value (shortened to “chronotropic effect”) in test [1] and in test [1] (listed as PK 2) were “minor positive chronotropic effect” and “neither synthetic PK 2 nor the corresponding HPLC fraction (25) of CC/CA extract are active”, respectively.

In the case of leucomyosuppressin [LMS], the “cardioinhibition in T. molitor” value with heart of T. molitor (ref Skonieczna and Rosinski 2004) is “dose-dependent reversible cardioinhibition”. In addition, in test [2], the “cardioinhibition in Z. atratus” value is listed as “dose-dependent reversible cardioinhibition”. The “inhibition of heart contractile activity (percentage change in the control frequency of heart contraction)” value in test [1] (means ± SEM) came to 30%.

Regarding Proctolin, the “effect on beetle heart contractions” value with heart muscles in beetles is “stimulates contractions of the heart muscles”.

Regarding pETSDDYGHLRFa [sulfakinin 1], the “chronotropic effect” value in test [1] was “Neither sulfakinin 1 nor fraction 22 from the brain had any significant action; also recorded: no significant effects”.

As for “PFCNAFTGCa [CCAP, crustacean cardioactive peptide]”, in the test with heart of T. molitor (ref Furuya et al. 1993), the “effect on contractions of the myocardium of T. molitor” value is given as “stimulate contractions of the myocardium”.

As for pELNFSPNWa [AKH], the “effect on beetle heart contractions” value in the test with heart muscles in beetles is recorded as “positive chronotropic effects”.

pETSFTPRLa [Lem-PK]: the “stimulatory activity on the heart of T. molitor” value in the test on heart of T. molitor (ref Rosinski 1995) was “very little stimulatory activity”.

Turning to “GRWGGFA [Trica-NVP-4 trunc, truncated NVP-like peptide-4 (GRWGGFA)]”, the “chronotropic effect” value in test [1] was “no effect on heart activity”; in test [1] (listed as NVP-4 trunc.), “no effect on heart contractile activity”.

Source of the values: publication PMC3016957, “Identification of Myotropic Neuropeptides from the Brain and Corpus Cardiacum-Corpus Allatum Complex of the Beetle, Zophobas atratus” (Journal of Insect Science, 2010).
